In PubChem BioAssay (NCI) one finds TGI data, which are given here for 17 compounds.

Common to all, as to assay: growth of human tumour cells (NCI), 48 h
Experiment [1] has as its system A549 NSCLC.
In experiment [2] the test system is HCC-2998 colon.
Experiment [3] relates to MDA-N.
The test system of experiment [4] is MOLT-4 leukemia.
The subject of experiment [5] is NCI-H522 lung.
Experiment [6] concerns SK-MEL-5 melanoma.
For experiment [7], the system named is SNB-75 CNS.
Experiment [8] has as its system UACC-62 melanoma.

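Where inhibition never reached the appropriate level, the endpoint shown equals the highest concentration tested. Otherwise, values were interpolated linearly from a five-concentration, 48-hour dose response in 96-well plates. The concentration for full growth arrest is given as TGI.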

Take `CCOC(=O)c1cc(C2(O)CCN(Cc3ccccc3)C2=O)c(-c2cc(C)no2)[nH]1` (stereo not drawn): the TGI in experiment [1] was greater than 100 µM; in experiment [2], greater than 100 µM; in experiment [3], greater than 100 µM; in experiment [4], 41.9 µM; in experiment [5] it was 43.3 µM; in experiment [6] it was greater than 100 µM. Besides, the TGI is 85.8 µM in experiment [7] and greater than 100 µM in experiment [8].
Take `CCOC(=O)c1sc2nc(SC)nc3c2c1N=CN3c1ccc(Br)cc1`: the TGI in experiment [1], in experiment [2], in experiment [3], in experiment [4], in experiment [5] and in experiment [6] was greater than 100 µM in each case. Moreover, the TGI in experiment [7] and in experiment [8] was greater than 100 µM each time.
Take `CC1(C)CC2(C)CC1CC2O` (stereo not drawn): the TGI in experiment [1], in experiment [2], in experiment [3], in experiment [4], in experiment [6] and in experiment [7] was greater than 100 µM in each case. The compound further gave a TGI in experiment [8] greater than 100 µM.
`CCOC(=O)CCC(NC(=O)c1ccc(OCc2nc3cc(C(F)(F)F)ccc3nc2-c2ccccc2)cc1)C(=O)OCC` (stereo not drawn): the TGI in experiment [1] is greater than 100 µM; in experiment [3] it was greater than 100 µM; in experiment [4], greater than 100 µM; in experiment [5], greater than 100 µM; in experiment [6], 60.4 µM; in experiment [7], 52.1 µM. The TGI in experiment [8] was greater than 100 µM.
Consider `N#C/C(=C\NC(=S)Nc1ccc(S(=O)(=O)Nc2ccccn2)cc1)C(N)=O`, for which the TGI in experiment [1], in experiment [3], in experiment [4], in experiment [5], in experiment [6] and in experiment [7] was greater than 100 µM throughout. Moreover, the TGI in experiment [8] was greater than 100 µM.
As to `CC(C)(C)OC(=O)NC(C)(C)C(=O)NCCC(=O)O`, the TGI in experiment [1], in experiment [4], in experiment [5], in experiment [6], in experiment [7] and in experiment [8] was greater than 100 µM throughout.
On to `CC[C@@H]1CC[C@@H]2[C@H](CC[C@]3(C)[C@@H](O)CC[C@@H]23)[C@H]1C(=O)O`, for which the TGI in experiment [1], in experiment [2], in experiment [3], in experiment [4], in experiment [5] and in experiment [6] was greater than 100 µM throughout. In addition, the TGI in experiment [7] and in experiment [8] was greater than 100 µM each time.
Regarding `OCC1CCCC(n2cnc3c(=S)nc[nH]c32)O1` (stereo not drawn), the TGI in experiment [1], in experiment [2], in experiment [3], in experiment [5], in experiment [6] and in experiment [7] was greater than 100 µM each time. Further, the TGI in experiment [8] was greater than 100 µM.
As to `CC12CC(c3ccccc3O1)C(C(=O)Nc1ccc(F)cc1)C(=O)N2` (stereo not drawn), the TGI in experiment [1] was greater than 100 µM; in experiment [2], greater than 100 µM; in experiment [3] it was greater than 100 µM; in experiment [4], 76.5 µM; in experiment [5], greater than 100 µM; in experiment [6], greater than 100 µM. Moreover, the TGI in experiment [8] is greater than 100 µM.
Turning to `CCOc1ccc(N/C(=C(/C(Cl)=C(/Cl)NCCN)[N+](=O)[O-])n2nnc3ccccc32)cc1`, the TGI in experiment [1], in experiment [2], in experiment [3], in experiment [4], in experiment [7] and in experiment [8] was greater than 100 µM throughout.
Regarding `CCCCc1c(O)nc(Nc2nc3ccccc3[nH]2)[nH]c1=O`, the TGI in experiment [1], in experiment [3], in experiment [4], in experiment [5], in experiment [6] and in experiment [7] was greater than 100 µM in each case. In experiment [8], this compound came in with a TGI greater than 100 µM.
Take `Cc1cccc(N2C(=O)C3ON(C(C(N)=O)c4ccccc4)C(c4c5ccccc5c(Cl)c5ccccc45)C3C2=O)c1C` (stereo not drawn): the TGI in experiment [1] is 48.5 µM; in experiment [3] it was 10 µM; in experiment [4], 10.2 µM; in experiment [5], greater than 50 µM; in experiment [6], 13.9 µM; in experiment [7] it was 19.4 µM. The same compound returned a TGI in experiment [8] of 13.8 µM.
Turning to `COc1cc(COC(=O)N[C@H](C(=O)O)C(C)(C)C)c([N+](=O)[O-])cc1OC`, the TGI in experiment [1], in experiment [2], in experiment [3], in experiment [4], in experiment [6] and in experiment [7] was greater than 100 µM throughout. In experiment [8], this compound gave a TGI greater than 100 µM.
Consider `CCOC(=O)c1c(NC(=O)c2ccccc2)sc2c1CCCC2`, for which the TGI in experiment [3], in experiment [4], in experiment [6], in experiment [7] and in experiment [8] was greater than 100 µM in each case.
For `Cc1ccc(-c2cc(N)n(-c3nc4c([nH]3)c(=O)n(C)c(=O)n4C)n2)cc1`, the TGI in experiment [1] is greater than 100 µM; in experiment [2], greater than 100 µM; in experiment [3], greater than 100 µM; in experiment [4] it was greater than 100 µM; in experiment [5] it was greater than 100 µM; in experiment [6], 17 µM. The TGI in experiment [8] came out at 22.7 µM.
Turning to `CCCN=C1CC(C)Nc2ccccc2N1` (stereo not drawn), the TGI in experiment [1], in experiment [3], in experiment [4], in experiment [5], in experiment [6] and in experiment [7] was greater than 100 µM in each case. This compound yielded a TGI in experiment [8] greater than 100 µM.
On to `Nc1nc2ncc(SCc3ccc(C(=O)NC(CCC(=O)O)C(=O)O)cc3)cc2c(=O)[nH]1` (stereo not drawn), for which the TGI in experiment [1], in experiment [2], in experiment [3], in experiment [4], in experiment [5] and in experiment [6] was greater than 100 µM throughout. This compound also displayed a TGI in experiment [8] greater than 100 µM.
